Reference: patent US9663511B2, “Sphingosine 1-phosphate receptor antagonists” (ARROYO BIOSCIENCES, LLC, priority 2012, dated 2017)

Legend:
S1P5 receptor = S1P5 receptor (Homo sapiens (Human), UniProt Q9H228); test: Antagonist assay (FLIPR TETRA, inhibition of reference agonist EC80) on S1P5; type: cell-based; conditions: tested as the citrate salt
Procedure: (§1) Antagonist percentage inhibition determinations were obtained by assaying sample compounds and referencing the control (EC80) wells for each profiled (GPCR) which evaluated binding to S1P2 and S1P5 receptors. The samples were run using a single addition assay protocol. The protocol design is as follows.
(§2) Unless specified otherwise, the sample compounds were diluted in 100% anhydrous DMSO including all dilutions. The compounds were tested as the citrate salt (1 equivalent per molecule). If the sample compound is provided in a different solvent all master stock dilutions are performed in the specified solvent. All control wells contained identical solvent final concentrations as the sample compound wells.
(§3) The sample compounds were transferred from a master stock solution into a daughter plate that was used in the assay. Each sample compound was diluted into an assay buffer (1×HBSS with 20 mM HEPES, 2.5 mM Probenecid, and 0.4% Free Fatty Acid BSA) at an appropriate concentration to obtain final specified concentrations.
(§4) Using the EC80 values that were determined real-time, stimulated all pre-incubated sample compounds and reference antagonists (if applicable) were compared with the EC80 values of reference agonist. These were read for 180 seconds using the FLIPR^TETRA (This assay added reference agonist to respective wells-then fluorescences measurements were collected to calculate IC50 values). All plates were subjected to appropriate baseline corrections. Once baseline corrections were processed, maximum fluorescence values were exported and data manipulated to calculate percentage activation, percentage inhibition and Z′.

[1] = Microsomal intrinsic clearance; conditions: for microsomal CLint at 1 μM / half-life at 1 μM: mouse, liver microsomes, mouse microsomes, test conc. 1 μM
[2] = In vitro plasma protein binding; type: in vitro ADME, mouse; conditions: for mean fraction bound (%): mouse plasma, test concentration 5 nM
S1P2 receptor = S1P2 receptor (Homo sapiens (Human), UniProt O95136); test: Antagonist assay (FLIPR TETRA, inhibition of reference agonist EC80) on S1P2; type: cell-based; conditions: tested as the citrate salt
Sequence of S1P2 receptor (O95136 whole entry): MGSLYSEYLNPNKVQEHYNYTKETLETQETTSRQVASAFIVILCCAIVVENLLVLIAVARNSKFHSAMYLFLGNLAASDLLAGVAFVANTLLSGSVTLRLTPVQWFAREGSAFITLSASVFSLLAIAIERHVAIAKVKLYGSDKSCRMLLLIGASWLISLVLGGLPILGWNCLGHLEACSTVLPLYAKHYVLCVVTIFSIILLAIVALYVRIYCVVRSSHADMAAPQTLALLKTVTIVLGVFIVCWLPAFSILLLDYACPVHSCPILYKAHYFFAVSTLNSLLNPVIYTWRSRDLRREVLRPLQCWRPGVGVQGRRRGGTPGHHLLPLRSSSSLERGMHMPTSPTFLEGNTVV
Procedure: as §1, §2, §3, §4

Sequence of S1P5 receptor (Q9H228 whole entry): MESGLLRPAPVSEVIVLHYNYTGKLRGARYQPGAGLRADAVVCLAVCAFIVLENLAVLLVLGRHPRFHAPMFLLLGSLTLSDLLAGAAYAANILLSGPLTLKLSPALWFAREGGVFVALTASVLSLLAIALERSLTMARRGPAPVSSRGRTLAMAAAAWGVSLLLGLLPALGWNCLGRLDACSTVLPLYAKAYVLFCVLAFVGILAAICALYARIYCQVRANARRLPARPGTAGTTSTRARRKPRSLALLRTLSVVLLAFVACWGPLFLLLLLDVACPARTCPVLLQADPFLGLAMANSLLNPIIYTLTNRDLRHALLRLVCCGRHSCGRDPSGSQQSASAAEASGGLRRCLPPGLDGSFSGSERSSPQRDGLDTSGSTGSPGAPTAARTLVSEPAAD

Row | IC50 (S1P5 receptor) [nM] | IC50 (S1P2 receptor) [nM] | also measured | SMILES
1 | 3.2 | 11 | stability in liver microsomes (in words) ([1]; compared with JTE013): much more stable in liver microsomes; microsomal CLint at 1 μM ([1]; NADPH-dependent Clint (microsomal intrinsic clearance)): 20 µL/min/mg; half-life at 1 μM ([1]; NADPH-dependent T1/2 (half-life)): 1.88 h; microsomal CLint at 1 μM ([1]; NADPH-free Clint (microsomal intrinsic clearance)): 9 µL/min/mg; half-life at 1 μM ([1]; NADPH-free T1/2 (half-life)): > 3 h; plasma protein binding (in words) ([2]; compared with JTE013 and compound 1): lower plasma protein binding; mean fraction bound (%) [2]: 77.0% | Cc1nn(C)c2nc(N(CC(=O)O)NC(=O)Nc3cc(Cl)nc(Cl)c3)cc(C(C)C)c12 [Compound 2]
2 | 5700 | 3000 | – | C=CCn1nc(C)c2c(C(C)C)cc(N(CC(=O)O)NC(=O)Nc3cc(Cl)nc(Cl)c3)nc21 [Compound 3]
3 | > 10000 | > 10000 | – | C=CCn1nc(C)c2c(C(F)(F)F)cc(NNC(=O)Nc3cc(Cl)nc(Cl)c3)nc21 [Compound 5]
4 | 8.7 | 52 | – | C=CCn1nc(C)c2c(C(C)C)cc(ONC(=O)Nc3cc(Cl)nc(Cl)c3)nc21 [Compound 6]
5 | 20.9 | 7 | – | Cc1nn(C)c2nc(N(CCO)NC(=O)Nc3cc(Cl)nc(Cl)c3)cc(C(C)C)c12 [Compound 9, N-(2,6-Dichloropyridin-4-yl)-2-(2-hydroxyethyl)-2-(4-isopropyl-1,3-dimethyl-1H-pyrazolo[3,4-b]pyridin-6-yl)hydrazine-1-carboxamide]
6 | 165 | 75 | – | C=CCn1nc(C)c2c(C(C)C)cc(NNC(=O)Nc3cc(Cl)nc(Cl)c3)nc21 [Compound 27]
7 | < 10 | 5 | – | CC(C)c1cc(NNC(=O)Nc2cc(Cl)nc(Cl)c2)nc2c(CCCO)nn(C)c12 [Compound 33]
8 | 13 | 29 | – | CCOc1cc(NC(=O)NN(CCO)c2cc(C(C)C)c3c(C)nn(C)c3n2)cc(Cl)n1 [Compound 35]
9 | 33 | 10 | – | CCCOc1cc(NC(=O)NN(CCO)c2cc(C(C)C)c3c(C)nn(C)c3n2)cc(Cl)n1 [Compound 36]
10 | > 10000 | 160 | – | COCCOc1cc(NC(=O)NN(CCO)c2cc(C(C)C)c3c(C)nn(C)c3n2)cc(Cl)n1 [Compound 37]
11 | 4.6 | 4 | – | CCNc1cc(NC(=O)NN(CCO)c2cc(C(C)C)c3c(C)nn(C)c3n2)cc(Cl)n1 [Compound 38]
12 | 40 | 19 | – | CCN(C)c1cc(NC(=O)NN(CCO)c2cc(C(C)C)c3c(C)nn(C)c3n2)cc(Cl)n1 [Compound 39]
13 | > 10000 | 300 | – | Cc1nn(C)c2nc(N(CCO)NC(=O)Nc3cnc(Cl)c(Cl)c3)cc(C(C)C)c12 [Compound 40]
14 | > 10000 | > 10000 | – | Cc1nn(C)c2nc(N(CCO)NC(=O)Nc3ccc(Cl)nc3Cl)cc(C(C)C)c12 [Compound 41]
15 | 290 | 64 | – | Cc1nn(C)c2nc(N(CCO)NC(=O)Nc3cc(Cl)c(Cl)s3)cc(C(C)C)c12 [Compound 42]
16 | > 10000 | 360 | – | Cc1sc(NC(=O)NN(CCO)c2cc(C(C)C)c3c(C)nn(C)c3n2)cc1Cl [Compound 43]
17 | 74 | > 120 | – | Cc1nn(C)c2nc(N(CCO)NC(=O)Nc3cc(Cl)cc(C(F)(F)F)c3)cc(C(C)C)c12 [Compound 44]
18 | > 10000 | > 10000 | – | Cc1nn(C)c2nc(N(CCO)NC(=O)Nc3cc(Cl)no3)cc(C(C)C)c12 [Compound 45]
19 | – | – | mean fraction bound (%) [2]: 87.4% | CC(C)NCC(O)COc1cccc2ccccc12 (centres unmarked) [Propanolol, reference compound]
